Source: patent US11254665B2, “Crystalline sulfamide compound” (CHIA TAI TIANQING PHARMACEUTICAL GROUP CO., LTD., priority 2017, dated 2022)
Each block holds one compound with its values, some of them ahead of it.

Key:
[1] = Pharmacokinetic experiments, single peroral administration; format: in vivo; conditions: rat; male SD rats, oral 5 mg/kg, suspension in 0.5% MC, 0.2% Tween80, plasma
Method: Male SD rats were from Beijing Vital River Laboratory Animal Technology Co., Ltd., and divided into groups (3 rats per group). The rats were intragastrically administered with the test sample suspension (5 mg/kg) via a single peroral administration, respectively. The animals were fasted overnight before this study. The fasting time period was from 10 hours before administration to 4 hours after administration. Blood samples were taken at 0.25, 0.5, 1, 2, 4, 6, 8 and 24 hours after administration. After the rats were anesthetized with isoflurane using an anesthesia machine for small animal, and then 0.3 mL whole blood samples were taken from the fundus venous plexus. The blood samples were placed in heparin anticoagulant tubes, and centrifuged for 5 min at 4° C. and 4000 rpm. The plasma was transferred to centrifuge tubes, and stored at −80° C. till analysis. The samples in plasma were extracted through protein precipitation. The liquid extract was analyzed by LC-MS/MS, wherein HPLC conditions were as follows: flow rate 0.4 mL/min; mobile phase A: water/formic acid (99.9/0.1, v/v); mobile phase B: acetonitrile/formic acid (99.9/0.1, v/v); injection volume: 5 μL; column temperature: RT; autosampler temperature: RT; run time: 2.5 min.

IDH1(R132H) = IDH1(R132H) (Homo sapiens, UniProt O75874, R132H); experiment: Enzyme assay (NADPH/diaphorase/resazurin), IDH1 mutant inhibition; format: biochemical; conditions: 16 h pre-incubation with enzyme and NADPH at 23° C.
Chain of IDH1(R132H) (O75874 whole entry R132H): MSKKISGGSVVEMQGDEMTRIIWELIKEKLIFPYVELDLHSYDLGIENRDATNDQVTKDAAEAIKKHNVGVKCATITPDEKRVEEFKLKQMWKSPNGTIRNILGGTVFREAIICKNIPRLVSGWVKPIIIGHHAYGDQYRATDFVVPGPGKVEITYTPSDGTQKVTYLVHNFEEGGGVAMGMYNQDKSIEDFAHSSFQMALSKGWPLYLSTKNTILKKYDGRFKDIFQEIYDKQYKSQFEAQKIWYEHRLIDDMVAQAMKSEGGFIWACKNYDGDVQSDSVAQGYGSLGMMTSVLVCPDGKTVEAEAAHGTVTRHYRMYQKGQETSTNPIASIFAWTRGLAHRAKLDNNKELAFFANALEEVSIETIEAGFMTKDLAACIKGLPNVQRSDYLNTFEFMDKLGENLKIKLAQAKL
Description: (§1) Resazurin is a traditional redox dye, and after a redox reaction, it can be reduced from a blue resazurin without fluorescence to a pink fluorescent substance, resorufin, which can be measured and quantified with relative fluorescence unit (RFU) of fluorophotometer (Ex=530-570 nm, Em=590-620 nm). At present, resazurin is widely used for determining the viability of bacteria, cells, etc., and the enzyme activity detection of oxidoreductase. We detected the decrease of cofactor NADPH to determine the inhibitory activity of a compound against IDH1m and detected the generation of cofactor NADPH to determine the inhibitory activity of a compound against IDH WT. […] The amount of the remaining cofactor NADPH after a specific reaction time was quantified via an easily detectable fluorophore.
(§2) The specific operation was as follows: 2.5 μl of the compound diluted in a 3-fold gradient was added to a 384-well plate, followed by adding 5 μl of the reaction buffer (20 mM Tris-HCl, pH 7.5; 150 mM NaCl; 10 mM MgCl2; 0.4 mg/mL BSA (Bovine Serum Albumin) and 2 mM DTT (dithiothreitol)) containing 40 nM IDH1 (R132H/R132C) and 20 μM NADPH. […] After incubating at 23° C. for 10 minutes, fluorescence values were determined through Flexstation 3 at Ex535/Em595. […]

IDH1(R132C) = IDH1(R132C) (Homo sapiens, UniProt O75874, R132C); experiment: as above; format: biochemical; conditions: 16 h pre-incubation with enzyme and NADPH at 23° C.
Chain of IDH1(R132C) (O75874 whole entry R132C): as the sequence (O75874 whole entry R132H) above, with H132C counted along it
Description: as §1, §2

[2] = Stability influencing factors: high humidity test; format: physicochemical
Method: (§3) In accordance with “Stability Testing of New Drug Substances and Products” in ICH Q1A and “Guidelines for the Stability Testing of Drug Substances and Preparations” in Pharmacopoeia of China, fourth part, 2015 edition, 9001, the stability influencing factors were tested for the crystal of the monohydrate formula II, including high temperature, high humidity and light tests.
(§4) In accordance with “Stability Testing of New Drug Substances and Products” in ICH Q1A and “Guidelines for the Stability Testing of Drug Substances and Preparations” in Pharmacopoeia of China, fourth part, 2015 edition, 9001, the stability influencing factors were tested for the crystal of the compound of formula I, including high temperature and high humidity tests.
(§5) In accordance with “Stability Testing of New Drug Substances and Products” in ICH Q1A and “Guidelines for the Stability Testing of Drug Substances and Preparations” in Pharmacopoeia of China, fourth part, 2015 edition, 9001, the stability influencing factors were tested for the amorphous form of the compound of formula I, including high temperature and high humidity tests.

[3] = Stability influencing factors: high temperature test; format: physicochemical
Method: as §3, §4, §5

[4] = Stability influencing factors: light test; format: physicochemical
Method: as §3

Tmax [1]: 4 h
IC50 (IDH1(R132H)): < 20 nM
IC50 (IDH1(R132C)): < 20 nM
SMILES: N#Cc1ccnc(N2[C@H](C(=O)N(c3cccc(F)c3)[C@H](C(=O)NC3CC(F)(F)C3)c3ccccc3Cl)CCS2(=O)=O)c1 [Compound of formula I, (S)—N—((S)-1-(2-chlorophenyl)-2-((3,3-difluorocyclobutyl)amino)-2-oxoethyl)-2-(4-cyanopyridin-2-yl)-N-(3-fluorophenyl)-isothiazolidine-3-carboxamide 1,1-dioxide]

Appearance ([2]; 0 day): White
Total impurities (%) ([2]; 0 day): 0.28%
Water (%) ([2]; 0 day): 1.4%
Appearance ([2]; 75% RH, 5 day): White
Total impurities (%) ([2]; 75% RH, 5 day): 0.30%
Water (%) ([2]; 75% RH, 5 day): 1.7%
Appearance ([2]; 75% RH, 10 day): White
Total impurities (%) ([2]; 75% RH, 10 day): 0.30%
Water (%) ([2]; 75% RH, 10 day): 1.8%
Appearance ([2]; 75% RH, 30 day): White
Total impurities (%) ([2]; 75% RH, 30 day): 0.27%
Water (%) ([2]; 75% RH, 30 day): 1.8%
Appearance ([2]; 92.5% RH, 5 day): White
Total impurities (%) ([2]; 92.5% RH, 5 day): 0.30%
Water (%) ([2]; 92.5% RH, 5 day): 2.1%
Appearance ([2]; 92.5% RH, 10 day): White
Total impurities (%) ([2]; 92.5% RH, 10 day): 0.29%
Water (%) ([2]; 92.5% RH, 10 day): 2.3%
Appearance ([2]; 92.5% RH, 30 day): White
Total impurities (%) ([2]; 92.5% RH, 30 day): 0.26%
Water (%) ([2]; 92.5% RH, 30 day): 2.4%
Appearance ([3]; 0 day): White
Total impurities (%) ([3]; 0 day): 0.28%
Water (%) ([3]; 0 day): 1.4%
Appearance ([3]; 40° C., 5 day): White
Total impurities (%) ([3]; 40° C., 5 day): 0.25%
Water (%) ([3]; 40° C., 5 day): 1.1%
Appearance ([3]; 40° C., 10 day): White
Total impurities (%) ([3]; 40° C., 10 day): 0.28%
Water (%) ([3]; 40° C., 10 day): 1.0%
Appearance ([3]; 40° C., 30 day): White
Total impurities (%) ([3]; 40° C., 30 day): 0.26%
Water (%) ([3]; 40° C., 30 day): 0.8%
Appearance ([3]; 60° C., 5 day): White
Total impurities (%) ([3]; 60° C., 5 day): 0.31%
Water (%) ([3]; 60° C., 5 day): 0.8%
Appearance ([3]; 60° C., 10 day): White
Total impurities (%) ([3]; 60° C., 10 day): 0.27%
Water (%) ([3]; 60° C., 10 day): 0.6%
Appearance ([3]; 60° C., 30 day): White
Total impurities (%) ([3]; 60° C., 30 day): 0.28%
Water (%) ([3]; 60° C., 30 day): 0.5%
SMILES: N#Cc1ccnc(N2[C@H](C(=O)N(c3cccc(F)c3)[C@H](C(=O)NC3CC(F)(F)C3)c3ccccc3Cl)CCS2(=O)=O)c1 [amorphous form of the compound of formula I]

Appearance ([2]; 0 day): White
Total impurities (%) ([2]; 0 day): 0.39%
Water (%) ([2]; 0 day): 0.45%
Appearance ([2]; 75% RH, 5 day): White
Total impurities (%) ([2]; 75% RH, 5 day): 0.43%
Water (%) ([2]; 75% RH, 5 day): 0.94%
Appearance ([2]; 75% RH, 12 day): White
Total impurities (%) ([2]; 75% RH, 12 day): 0.37%
Water (%) ([2]; 75% RH, 12 day): 1.16%
Appearance ([2]; 92.5% RH, 5 day): White
Total impurities (%) ([2]; 92.5% RH, 5 day): 0.47%
Water (%) ([2]; 92.5% RH, 5 day): 1.58%
Appearance ([2]; 92.5% RH, 12 day): White
Total impurities (%) ([2]; 92.5% RH, 12 day): 0.37%
Water (%) ([2]; 92.5% RH, 12 day): 1.75%
Appearance ([3]; 0 day): White
Total impurities (%) ([3]; 0 day): 0.39%
Water (%) ([3]; 0 day): 0.45%
Appearance ([3]; 40° C., 5 day): White
Total impurities (%) ([3]; 40° C., 5 day): 0.42%
Water (%) ([3]; 40° C., 5 day): 0.85%
Appearance ([3]; 40° C., 12 day): White
Total impurities (%) ([3]; 40° C., 12 day): 0.37%
Water (%) ([3]; 40° C., 12 day): 0.85%
Appearance ([3]; 60° C., 5 day): White
Total impurities (%) ([3]; 60° C., 5 day): 0.63%
Water (%) ([3]; 60° C., 5 day): 0.59%
Appearance ([3]; 60° C., 12 day): White
Total impurities (%) ([3]; 60° C., 12 day): 0.54%
Water (%) ([3]; 60° C., 12 day): 0.73%
SMILES: N#Cc1ccnc(N2[C@H](C(=O)N(c3cccc(F)c3)[C@H](C(=O)NC3CC(F)(F)C3)c3ccccc3Cl)CCS2(=O)=O)c1 [crystal of the compound of formula I]

Appearance ([2]; 0 day): White
Enantiomers (%) ([2]; 0 day): 0.01%
Total impurities (%) ([2]; 0 day): 0.38%
Total of diastereoisomers (%) ([2]; 0 day): 0.05%
Water (%) ([2]; 0 day): 3.10%
Appearance ([2]; 75% RH, 5 day): White
Enantiomers (%) ([2]; 75% RH, 5 day): 0.01%
Total impurities (%) ([2]; 75% RH, 5 day): 0.44%
Total of diastereoisomers (%) ([2]; 75% RH, 5 day): 0.05%
Water (%) ([2]; 75% RH, 5 day): 2.69%
Appearance ([2]; 75% RH, 10 day): White
Enantiomers (%) ([2]; 75% RH, 10 day): 0.01%
Total impurities (%) ([2]; 75% RH, 10 day): 0.50%
Total of diastereoisomers (%) ([2]; 75% RH, 10 day): 0.05%
Water (%) ([2]; 75% RH, 10 day): 2.53%
Appearance ([2]; 92.5% RH, 5 day): White
Enantiomers (%) ([2]; 92.5% RH, 5 day): 0.01%
Total impurities (%) ([2]; 92.5% RH, 5 day): 0.49%
Total of diastereoisomers (%) ([2]; 92.5% RH, 5 day): 0.04%
Water (%) ([2]; 92.5% RH, 5 day): 2.72%
Appearance ([2]; 92.5% RH, 10 day): White
Enantiomers (%) ([2]; 92.5% RH, 10 day): 0.01%
Total impurities (%) ([2]; 92.5% RH, 10 day): 0.49%
Total of diastereoisomers (%) ([2]; 92.5% RH, 10 day): 0.05%
Water (%) ([2]; 92.5% RH, 10 day): 2.42%
Appearance ([4]; 0 day): White
Enantiomers (%) ([4]; 0 day): 0.01%
Total impurities (%) ([4]; 0 day): 0.38%
Total of diastereoisomers (%) ([4]; 0 day): 0.05%
Water (%) ([4]; 0 day): 3.10%
Appearance ([4]; Lighting, 5 day): White
Enantiomers (%) ([4]; Lighting, 5 day): 0.01%
Total impurities (%) ([4]; Lighting, 5 day): 0.56%
Total of diastereoisomers (%) ([4]; Lighting, 5 day): 0.05%
Water (%) ([4]; Lighting, 5 day): 2.72%
Appearance ([4]; Lighting, 10 day): White
Enantiomers (%) ([4]; Lighting, 10 day): 0.01%
Total impurities (%) ([4]; Lighting, 10 day): 0.63%
Total of diastereoisomers (%) ([4]; Lighting, 10 day): 0.05%
Water (%) ([4]; Lighting, 10 day): 2.47%
Appearance ([4]; shading, 5 day): White
Enantiomers (%) ([4]; shading, 5 day): 0.01%
Total impurities (%) ([4]; shading, 5 day): 0.49%
Total of diastereoisomers (%) ([4]; shading, 5 day): 0.05%
Water (%) ([4]; shading, 5 day): 2.73%
Appearance ([4]; shading, 10 day): White
Enantiomers (%) ([4]; shading, 10 day): 0.01%
Total impurities (%) ([4]; shading, 10 day): 0.47%
Total of diastereoisomers (%) ([4]; shading, 10 day): 0.05%
Water (%) ([4]; shading, 10 day): 2.55%
Appearance ([3]; 0 day): White
Enantiomers (%) ([3]; 0 day): 0.01%
Total impurities (%) ([3]; 0 day): 0.38%
Total of diastereoisomers (%) ([3]; 0 day): 0.05%
Water (%) ([3]; 0 day): 3.10%
Appearance ([3]; 40° C., 5 day): White
Enantiomers (%) ([3]; 40° C., 5 day): 0.01%
Total impurities (%) ([3]; 40° C., 5 day): 0.45%
Total of diastereoisomers (%) ([3]; 40° C., 5 day): 0.05%
Water (%) ([3]; 40° C., 5 day): 2.69%
Appearance ([3]; 40° C., 10 day): White
Enantiomers (%) ([3]; 40° C., 10 day): 0.01%
Total impurities (%) ([3]; 40° C., 10 day): 0.47%
Total of diastereoisomers (%) ([3]; 40° C., 10 day): 0.05%
Water (%) ([3]; 40° C., 10 day): 2.45%
Appearance ([3]; 60° C., 5 day): White
Total impurities (%) ([3]; 60° C., 5 day): 0.48%
Total of diastereoisomers (%) ([3]; 60° C., 5 day): 0.05%
Water (%) ([3]; 60° C., 5 day): 2.67%
Appearance ([3]; 60° C., 10 day): White
Enantiomers (%) ([3]; 60° C., 10 day): 0.01%
Total impurities (%) ([3]; 60° C., 10 day): 0.47%
Total of diastereoisomers (%) ([3]; 60° C., 10 day): 0.05%
Water (%) ([3]; 60° C., 10 day): 2.51%
SMILES: N#Cc1ccnc(N2[C@H](C(=O)N(c3cccc(F)c3)[C@H](C(=O)NC3CC(F)(F)C3)c3ccccc3Cl)CCS2(=O)=O)c1 [crystal of the monohydrate of formula II]
